Laboratory results taken from patent publication US11602531B2, “Vacuole-inducing compounds, methods of making and using the same” (The University of Toledo, priority 2017, dated 2023).

Assays:
Format in all cases: cell-based, human
U251 glioblastoma cells [1] = assay: Vacuolization of U251 cells by phase contrast and electron microscopy; conditions: 24 h; for vacuolization of endocytic compartments (accumulation of vacuoles): 10 μM MOPIPP or 1 μM vacuolin-1, phase contrast microscopy
U251 glioblastoma cells [2] = assay: Cell counts, proliferation and viability of treated cultures (Coulter Counter); conditions: for cell attachment and proliferation despite vacuolization / growth inhibition (cell numbers versus DMSO control): U251 cells, 24 h; for cell attachment and proliferation despite vacuolization / cell proliferation and viability: 10 μM MOPIPP or 1 μM vacuolin-1; for growth inhibition (cell numbers versus DMSO control): 10 μM MOPIPP or 1 μM vacuolin-1, Coulter Counter; for cell proliferation and viability: U251 glioblastoma cells
Description: U251 human glioblastoma cells were purchased from the DCT Tumor Repository (National Cancer Institute, Frederick, Md.). Stock cultures were maintained in Dulbecco's modified Eagle medium (DMEM) containing 10% (v/v) fetal bovine serum (FBS) (JR Scientific, Woodland, Calif.) at 37° C. with an atmosphere of 5% CO2 in air. Cultures were passaged for less than 6 months and were monitored periodically for Mycoplasma contamination.
(§1) Prior to beginning studies, cells were seeded in 10 cm diameter culture dishes at 500,000 cells/dish and maintained for 24 h in DMEM supplemented with 10% Gibco™ exosome-depleted FBS (ThermoFisher Scientific, Waltham, Mass.). The medium was then replaced with fresh medium containing either 10 μM MOPIPP (synthesized as described in Trabbic et al., “Differential Induction of Cytoplasmic Vacuolization and Methuosis by Novel 2-Indolyl-Substituted Pyridinylpropenones, ACS Med. Chem. Lett., 5 (2014) 73-77) or 1 μM vacuolin-1 (Santa Cruz Biotechnology, Santa Cruz, Calif.) dissolved in DMSO. Control cultures contain an equivalent volume of the DMSO vehicle (0.1%) in the medium. After 24 h, the medium was collected from the dishes (typically 10-12 dishes per condition) and the attached cells were pooled and counted with a Coulter Counter (model Z1). Exosomes were isolated from medium using the Exo-Spin™ Exosome Purification system (Cell Guidance Systems, St. Louis, Mo.). The medium was pre-cleared by centrifugation at 4° C., first at 300×g for 10 min and then at 16,000×g for 30 min. Then a volume of Buffer A equal to half the volume of medium was added and the mixture was incubated overnight at 4° C. The precipitate, enriched with exosomes, was collected by centrifugation at 16,000×g for 1 h, and the pellet was re-suspended in […] Dulbecco's phosphate-buffered saline (PBS), pH 7.4. The material was applied to an Exo-Spin column equilibrated with PBS, and the purified exosomes were eluted in 200 μl of PBS.

U251 glioblastoma cells [3] = assay: Immunoblot quantification of exosome marker proteins (CD63, Alix, LAMP-1) in purified exosomes and in cells; conditions: 10 μM MOPIPP or 1 μM vacuolin-1, western blot; for changes in expression of CD63, Alix and LAMP-1 in the corresponding cell populations: cell lysates, 24 h; for relative amounts of CD63, Alix and LAMP-1 in extracellular vesicle preparations versus control: exosomes from 24 h conditioned medium
Description: as §1
The cells in the dishes used for collection of exosomes were washed three times with PBS and lysed in SDS sample buffer (Laemmli, “Cleavage of structural proteins during the assembly of the head of bacteriophage T4, Nature, 227 (1970) 680-685). The protein concentration was determined by colorimetric assay using Bio-Rad reagent (Bio-Rad, Richmond, Calif.). Samples containing equal amounts of total cell protein were subjected to SDS-PAGE and immunoblot analysis (as described in Maltese et al., “Retention of the Alzheimer's amyloid precursor fragment C99 in the endoplasmic reticulum prevents formation of amyloid beta-peptide, J. Biol. Chem., 276 (2001) 20267-20279). For analysis of proteins in exosomes, equal volumes of purified exosomes isolated from control or treated cells were mixed with ⅕ volume of 5×SDS sample buffer prior to SDS-PAGE. Monoclonal antibodies against CD63 and LAMP-1 were obtained from the Developmental Studies Hybridoma Bank (Iowa City, Iowa). […] Chemiluminescent signals on the membranes were quantified using an Alpha Innotech FluorChem HD2 imaging system with Alpha View software.

U251 glioblastoma cells [4] = assay: RT-PCR analysis of miRNAs in cells and exosomes; conditions: for relative abundance of miR-21-5p in exosomal RNA: equal amounts of exosomal RNA, raw Ct values, three independent experiments
Description: Prior to beginning studies, cells were seeded in 10 cm diameter culture dishes at 500,000 cells/dish and maintained for 24 h in DMEM supplemented with 10% Gibco™ exosome-depleted FBS (ThermoFisher Scientific, Waltham, Mass.). The medium was then replaced with fresh medium containing either 10 μM MOPIPP (synthesized as described in Trabbic et al., “Differential Induction of Cytoplasmic Vacuolization and Methuosis by Novel 2-Indolyl-Substituted Pyridinylpropenones, ACS Med. Chem. Lett., 5 (2014) 73-77) or 1 μM vacuolin-1 (Santa Cruz Biotechnology, Santa Cruz, Calif.) dissolved in DMSO. Control cultures contain an equivalent volume of the DMSO vehicle (0.1%) in the medium. After 24 h, the medium was collected from the dishes (typically 10-12 dishes per condition) and the attached cells were pooled and counted with a Coulter Counter (model Z1). Exosomes were isolated from medium using the Exo-Spin™ Exosome Purification system (Cell Guidance Systems, St. Louis, Mo.). The medium was pre-cleared by centrifugation at 4° C., first at 300×g for 10 min and then at 16,000×g for 30 min. Then a volume of Buffer A equal to half the volume of medium was added and the mixture was incubated overnight at 4° C. The precipitate, enriched with exosomes, was collected by centrifugation at 16,000×g for 1 h, and the pellet was re-suspended in […] Dulbecco's phosphate-buffered saline (PBS), pH 7.4. […]
Total RNA was extracted and purified from cultured cells or exosomes using QIAzol™ lysis reagent followed by RNAeasy Mini spin-columns, according to the manufacturer's protocol (SA Biosciences/Qiagen, Germantown, Md.). […] RNA and cDNA were quantified and checked for purity (OD 260/280) using a Nano-Drop-1000 spectrophotometer (ThermoFisher). […] For comparisons of the miRNA contents of exosomes collected from the medium of cells treated with MOPIPP, vacuolin-1 or vehicle (DMSO), individual miScript primers were purchased for six of the most highly expressed miRNAs detected in U251 cells (SA Biosciences/Qiagen). […]

## CCCc1[nH]c2ccc(OC)cc2c1C=CC(=O)c1ccncc1 [MOPIPP, 3-(5-methoxy-2-propyl-1H-indol-3-yl)-1-(4-pyridinyl)-2-propen-1-one]
U251 glioblastoma cells [1]
  vacuolization of endocytic compartments (accumulation of vacuoles): resulted in vacuolization of endocytic compartments
U251 glioblastoma cells [1]; 10 μM MOPIPP, electron microscopy
  subpopulation of vacuoles containing clusters of heterogeneous vesicles (ILV/exosome size): 20-30%
U251 glioblastoma cells [2]
  cell attachment and proliferation despite vacuolization: remained attached to the culture dishes and continued to proliferate
  growth inhibition (cell numbers versus DMSO control): lack of growth inhibition
  cell proliferation and viability: not markedly impaired
U251 glioblastoma cells [3]
  changes in expression of CD63, Alix and LAMP-1 in the corresponding cell populations: comparatively modest
  relative amounts of CD63, Alix and LAMP-1 in extracellular vesicle preparations versus control: increased by several fold
U251 glioblastoma cells [4]; U251 cells, 24 h, 10 μM MOPIPP versus DMSO, RT-PCR
  cellular expression of 13 selected miRNAs: did not cause major changes
U251 glioblastoma cells [4]
  relative abundance of miR-21-5p in exosomal RNA: no observations of any changes

## Ic1cccc(/C=N/Nc2nc(N3CCOCC3)nc(N(c3ccccc3)c3ccccc3)n2)c1 [vacuolin-1, reference compound]
U251 glioblastoma cells [1]
  vacuolization of endocytic compartments (accumulation of vacuoles): induced a very similar phenotype
U251 glioblastoma cells [2]
  cell attachment and proliferation despite vacuolization: remained attached to the culture dishes and continued to proliferate
  growth inhibition (cell numbers versus DMSO control): lack of growth inhibition
  cell proliferation and viability: not markedly impaired
U251 glioblastoma cells [3]
  changes in expression of CD63, Alix and LAMP-1 in the corresponding cell populations: comparatively modest
  relative amounts of CD63, Alix and LAMP-1 in extracellular vesicle preparations versus control: An even greater increase
U251 glioblastoma cells [4]
  relative abundance of miR-21-5p in exosomal RNA: no observations of any changes
